The values below come from PubChem BioAssay (NCI).

Test systems include RPMI-8226 leukemia; BT-549 breast; OVCAR-8 ovarian; HCC-2998 colon; SN12C renal; CCRF-CEM leukemia; T-47D breast; SK-MEL-28 melanoma; KM20L2 colon; DMS 273 small cell lung; DMS 114 small cell lung; M19-MEL melanoma.
What all share (assay): inhibition of tumour cell growth, NCI panel, 48 h

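A five-concentration, 48-hour dose response in 96-well plates underlies each endpoint, interpolated linearly between surrounding concentrations. Here, GI50 denotes the concentration required for 50% inhibition of growth. TGI denotes the concentration required for complete inhibition of growth.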 Some results are limits rather than exact numbers.

On to `COC(=O)C(CCSC)NC(=O)CSc1nnc(COc2ccc(Cl)cc2)n1-c1ccccc1` (centres undefined), for which the TGI in the test on RPMI-8226 leukemia was 34.5 µM; with BT-549 breast, 37.4 µM; in the test on OVCAR-8 ovarian it was 36.3 µM; in the test on HCC-2998 colon, 18.2 µM; in the test with SN12C renal it was 33.1 µM; with CCRF-CEM leukemia, more than 66.1 µM. Also, the results for the TGI with T-47D breast and in the test on SK-MEL-28 melanoma were more than 78.7 µM and 33.8 µM, respectively.
Regarding `Brc1ccc2c(c1)-c1nc3c(cc1CC2)CCc1ccc(Br)cc1-3`, the TGI with RPMI-8226 leukemia, with BT-549 breast, with OVCAR-8 ovarian, with HCC-2998 colon, with SN12C renal and in the test with CCRF-CEM leukemia was more than 100 µM in each case. Besides, the TGI in the test with T-47D breast and with SK-MEL-28 melanoma was more than 100 µM each time.
With `O=C(NN1C(=O)CSC1c1ccc(Cl)c(Cl)c1)c1ccncc1` (centres undefined), the TGI in the test with RPMI-8226 leukemia, in the test on KM20L2 colon, in the test with DMS 273 small cell lung, in the test with OVCAR-8 ovarian, in the test with HCC-2998 colon and in the test on SN12C renal was more than 100 µM each time. The TGI in the test with CCRF-CEM leukemia, in the test on DMS 114 small cell lung and in the test on SK-MEL-28 melanoma was more than 100 µM throughout.
Take `COC1OC2COC(C)(C)OC2C2OC(C)(C)OC12` (centres undefined): the TGI was 93.6 µM in the test on RPMI-8226 leukemia; more than 100 µM in the test with BT-549 breast; more than 100 µM with OVCAR-8 ovarian; more than 100 µM in the test with HCC-2998 colon; 67.1 µM in the test with SN12C renal; 48.8 µM in the test on CCRF-CEM leukemia. Further, the TGI in the test on T-47D breast and in the test on SK-MEL-28 melanoma was more than 100 µM each time.
With `O=C(NCCCNCCCCNCCCNC(=O)C(F)(F)F)C(F)(F)F`, the TGI in the test on RPMI-8226 leukemia, with BT-549 breast, in the test on OVCAR-8 ovarian, in the test on HCC-2998 colon, with SN12C renal and in the test on CCRF-CEM leukemia was more than 100 µM throughout. The TGI in the test with T-47D breast and in the test on SK-MEL-28 melanoma was more than 100 µM in each case.
For the compound `O=c1oc2ccccc2c2nc3ccccc3cc12`, the TGI in the test on RPMI-8226 leukemia, with BT-549 breast, in the test with OVCAR-8 ovarian, in the test with HCC-2998 colon, with SN12C renal and in the test with CCRF-CEM leukemia was more than 100 µM throughout. Also, the TGI with T-47D breast and with SK-MEL-28 melanoma was more than 100 µM throughout.
With `CC[P+](C#Cc1ccccc1)(c1ccccc1)c1ccccc1`, the TGI in the test with RPMI-8226 leukemia was 0.781 µM; in the test on BT-549 breast it was 3.43 µM; in the test with OVCAR-8 ovarian, 6.2 µM; in the test with HCC-2998 colon, 4.46 µM; in the test with SN12C renal it was 5.41 µM; in the test with CCRF-CEM leukemia, 1.69 µM. Besides, the TGI in the test with T-47D breast worked out at 6.88 µM; in the test with SK-MEL-28 melanoma, 4.68 µM.
Take `COc1cc2c(cc1O)CC[n+]1cc3c(OC)c(OC)ccc3cc1-2`: the TGI with RPMI-8226 leukemia, with BT-549 breast, with OVCAR-8 ovarian, with HCC-2998 colon, in the test with SN12C renal and in the test on CCRF-CEM leukemia was more than 100 µM throughout. Besides, the TGI in the test with T-47D breast and with SK-MEL-28 melanoma was more than 100 µM each time.
Consider `COC(=O)C1=C(C(=O)OC)C2(C)CCC(=O)C1O2` (centres undefined), for which the TGI in the test on RPMI-8226 leukemia, with BT-549 breast, with OVCAR-8 ovarian, in the test with HCC-2998 colon, with SN12C renal and with CCRF-CEM leukemia was more than 10 µM throughout. Further, the TGI in the test on T-47D breast and with SK-MEL-28 melanoma was more than 10 µM throughout.
As for `O=[N+]([O-])c1ccc2nc3c(nc2c1)-c1c2ccccc2cc2cccc-3c12`, the TGI was 98.8 µM in the test with RPMI-8226 leukemia; 17.9 µM with BT-549 breast; more than 30.6 µM in the test on OVCAR-8 ovarian; more than 100 µM in the test on HCC-2998 colon; more than 100 µM in the test on SN12C renal; more than 100 µM in the test with CCRF-CEM leukemia. For the same compound, the TGI in the test with T-47D breast was 4.11 µM; with SK-MEL-28 melanoma it was more than 100 µM.
For `Cc1ccsc1C(=S)Nc1ccc(Cl)c(C(=O)OC(C(C)C)C(C)C)c1`, the TGI with RPMI-8226 leukemia was 45.1 µM; in the test with BT-549 breast it was 61.4 µM; in the test on OVCAR-8 ovarian, more than 100 µM; in the test with HCC-2998 colon, more than 100 µM; with SN12C renal, more than 100 µM; in the test with CCRF-CEM leukemia, more than 100 µM. The TGI with T-47D breast and with SK-MEL-28 melanoma was more than 100 µM throughout.
As for `COC(=O)[C@H]1C=C[C@H](OC2OC(COC(C)=O)C(OC(C)=O)C(OC(C)=O)C2OC(C)=O)n2c(=O)n(-c3ccccc3)c(=O)n21` (some centres undefined), the TGI with RPMI-8226 leukemia came out at 5.04 µM; in the test on BT-549 breast, 9.14 µM; in the test on OVCAR-8 ovarian it was 26.4 µM; with HCC-2998 colon, 4.55 µM; in the test with SN12C renal it was 19.9 µM; in the test with CCRF-CEM leukemia, 16.3 µM. The TGI was more than 28.1 µM in the test with T-47D breast and 8.63 µM in the test with SK-MEL-28 melanoma.
`O=C(O)c1cc2ccccc2c(S(=O)(=O)O)c1O`: the TGI in the test with RPMI-8226 leukemia, in the test with BT-549 breast, in the test with OVCAR-8 ovarian, in the test with HCC-2998 colon, in the test with SN12C renal and with CCRF-CEM leukemia was more than 100 µM throughout. Also, the TGI with T-47D breast and in the test with SK-MEL-28 melanoma was more than 100 µM throughout.
`O=c1cc(-c2ccccc2F)[nH]c2cc3c(cc12)OCO3`: the TGI in the test on DMS 273 small cell lung is more than 100 µM; with HCC-2998 colon it was 0.399 µM; with SN12C renal, more than 27.1 µM; in the test on CCRF-CEM leukemia, more than 17.7 µM; in the test with M19-MEL melanoma, more than 100 µM; in the test on DMS 114 small cell lung it was 51.7 µM. Also, the TGI in the test on T-47D breast and in the test with SK-MEL-28 melanoma was more than 100 µM each time.
Consider `Nc1nc(Nc2ccc(OCc3cccc(F)c3)cc2)c2c(n1)[nH]c1ccc(O)cc12`, for which the GI50 in the test on RPMI-8226 leukemia was 2.16 µM; in the test on BT-549 breast, 1.88 µM; in the test with OVCAR-8 ovarian, 3.49 µM; in the test with HCC-2998 colon, 3.46 µM; in the test with SN12C renal, 2.08 µM; in the test on CCRF-CEM leukemia it was 3.03 µM. Further, the GI50 in the test with T-47D breast was 1.79 µM; in the test with SK-MEL-28 melanoma, 2.26 µM. In addition, the TGI came out at 5.55 µM in the test with RPMI-8226 leukemia; 4.01 µM in the test on BT-549 breast; 13.2 µM in the test on OVCAR-8 ovarian; 13.6 µM with HCC-2998 colon; 4.56 µM in the test on SN12C renal; 9.62 µM with CCRF-CEM leukemia. The TGI with T-47D breast was 4.5 µM; in the test with SK-MEL-28 melanoma, 5.59 µM.
